Data reported in patent US4102887A, “Intermediates used in the preparation of phenyl-pyridylamine derivatives” (priority 1974, dated 1978).
Structures can show the parent of a compound that is named as a salt. Where two headings read alike, the source gives them in different places.

Key:
[1] = literature / prior patents; cited from earlier work
[2] = test system: neuronal uptake of 5-hydroxytryptamine; test: Inhibition of uptake of 14C-5-HT in vitro in slices of mouse midbrain; format: cell-based
Protocol: (§1) It is not possible by experimental means to induce depressions in laboratory animals. In order to evaluate a possible anti-depressive effect of new substances biochemicalpharmacological test methods must be resorted to. One such method, which seems to give a good indication of the potential anti-depressive effects of the test substances, is described in Europ.
(§2) The test substances were administered intraperitoneally half an hour before the animals were killed. […] The incubation time was 5 minutes with 5 minutes of preincubation before the labelled amines were added. The slices were dissolved in Soluene® and the amounts of radio-active amines taken up were determined by liquid scintillation. […] Active uptake is defined as that part of the radioactive uptake which is inhibited by a high concentration of cocaine.
(§3) In the in vitro method, slices of mouse midbrain were preincubated for 5 minutes with a solution of the compound to be tested and then incubated as described above.

[3] = test system: neuronal uptake of 5-hydroxytryptamine; test: Inhibition of uptake of 14C-5-HT in brain slices after in vivo (i.p.) administration; parameters: species or system mouse; details: in words
Protocol: as §1, §2

[4] = test system: neuronal uptake of noradrenaline; test: Inhibition of uptake of 3H-NA in brain slices after in vivo (i.p.) administration; parameters: species or system mouse
Protocol: as §1, §2

[5] = cited from earlier work
[6] = test system: neuronal uptake of noradrenaline; test: Inhibition of uptake of 3H-NA in vitro in slices of mouse midbrain; format: cell-based; details: in words; in vitro or in vivo not stated
Protocol: as §1, §2, §3

For `CN(C)CC=C(c1ccccc1)c1ccccc1`, the antidepressive effect [1] is given as “have an antidepressive effect”.

With `CNCC=C(c1ccc(Br)cc1)c1cccnc1` [H mixture oxalate, N-methyl-3-(4-bromophenyl)-3-(3-pyridyl)allylamine oxalate] the EC50 ([2]; Mus musculus, mouse midbrain slices, 5 min preincubation, 5 min incubation) was 500 nM.

For `CNC/C=C(/c1ccc(Br)cc1)c1cccnc1` [Z-form of the compound of the invention, (Z)-3-(4-bromophenyl)-3-(3-pyridyl)-N-methyl-allylamine], the “inhibition of the uptake of 5-HT in vivo, compared with prior art compounds” value [3] was “stronger inhibition of the uptake of 5-HT in vivo than do any of the prior art compounds tested” and the “inhibition of the uptake of 5-HT in vitro, compared with prior art compounds” value ([2]; in words, tested as the hydrochloride) was “more potent inhibitor of the uptake of 5-HT in vitro than any of the prior art compounds”.

`CNC/C=C(/c1ccc(Br)cc1)c1cccnc1` [H Z oxalate, (Z)-3-(4-bromophenyl)-3-(3-pyridyl)-N-methyl-allylamine] gave an ED50 ([4]; Mus musculus, ip, 0.5 h, i.p., half an hour before killing, mouse midbrain slices, dose for 50 percent decrease of active uptake) of 102 µmol/kg.

For `CNC/C=C(/c1ccc(Br)cc1)c1cccnc1` [H Z hydrochloride, (Z)-3-(4-bromophenyl)-3-(3-pyridyl)-N-methyl-allylamine], the inhibition at 101 µmol/kg ([4]; Mus musculus, ip, at the dose 101 μmole/kg i.p.) was 39% and the “Uptake of 3H-NA in vivo ED50” value ([4]; i.p., half an hour before killing, mouse midbrain slices, dose for 50 percent decrease of active uptake, 30 min) was > 101 µmol/kg.

In the case of `CNCCC=C1c2ccccc2CCc2ccccc21` [nortriptyline], the side effects ([5]; therapeutic use, arrhythmogenic in large doses to old patients) is given as “orthostatism, anticholinergic effects and above all, an arrhythmogenic i.e. heart arrhythmia developing effect” and the “start of the antidepressive effect” value ([5]; therapeutic use) is given as “does not start until some weeks after treatment”.

With `CNC/C=C(\c1ccc(Br)cc1)c1cccnc1` [E-form of the compound of the invention, (E)-3-(4-bromophenyl)-3-(3-pyridyl)-N-methyl-allylamine] the “preferential inhibition of noradrenaline uptake” value [6] was “primarily inhibits the uptake of noradrenaline”.

In the case of `CNCCCN1c2ccccc2CCc2ccccc21` [desipramine], the side effects ([5]; in vivo) is listed as “orthostatism, anticholinergic effects and above all, an arrhythmogenic i.e. heart arrhythmia developing effect” and the “start of the antidepressive effect” value ([5]; therapeutic use) is listed as “does not start until some weeks after treatment”.

For `CN(C)CCCN1c2ccccc2CCc2ccccc21` [imipramine], the side effects ([5]; in vivo) is listed as “orthostatism, anticholinergic effects and above all, an arrhythmogenic i.e. heart arrhythmia developing effect” and the “start of the antidepressive effect” value ([5]; therapeutic use) is listed as “does not start until some weeks after treatment”.

For `CN(C)CCC=C1c2ccccc2CCc2ccccc21` [amitriptyline], the side effects ([5]; in vivo) is listed as “orthostatism, anticholinergic effects and above all, an arrhythmogenic i.e. heart arrhythmia developing effect” and the “start of the antidepressive effect” value ([5]; therapeutic use) is listed as “does not start until some weeks after treatment”.
